US20240262795A1, “PYRAZINE COMPOUNDS AS INHIBITORS OF FLT3” (Biomea Fusion, Inc., priority 2021, published 2024)

What was measured:
Type in all cases: cell-based, human
MOLM-13 = experiment: Proliferation inhibition, CellTiter-Glo, MOLM-13; conditions: Homo sapiens, 96 h; MOLM-13 cells, IC50 (4 days), CellTiter-Glo; read-out: MOLM-13 IC50
Text: (§1) The proliferation inhibitory effect was investigated in human AML cell lines MOLM-13 (AddexBio: C0003003) and MV-4-11 (ATCC: CRL-9591), and CML cell line […] (ATCC: CRL-3343). Molm-13 is heterozygous for FLT3-ITD mutation, while MV4-11 is homozygous for FLT3-ITD (Quentmeier H, et al., Leukemia. 17(1):120-4). […] Cells were maintained in RPMI-1640 medium (ThermoFisher catalog no. 61870036) supplemented with 10% of Heat Inactivated FBS (ThermoFisher catalog no. A31605) and 1% Pen-Strep (ThermoFisher catalog no. 10378016) and cultured at 37° C. in a humidified incubator with 5% CO2. Cell lines were grown by […], and the cells were maintained in a range 70%-80% confluency.
(§2) ATP is present in all metabolically active cells and is considered as a marker for cell viability and proliferation. Metabolic cell activity was determined using the CellTiter-Glo kit (Promega catalog no. G7572), an ATP monitoring system based on the production of luminescence by the reaction of ATP with added UltraGlo® recombinant luciferase (Kawano et al., 2016, PLOS One, 8; 11(7):e0158888), according to the supplier's experimental recommendations. The assay was based on a 96 well plate format.
(§3) Test compounds were dissolved at 10 mM in DMSO (Sigma catalog no. D8418; purity≥99.9%) and stored at −20° C. Eight concentrations of test compound were assessed in duplicate in an individual test occasion in parallel in the selected cell lines. Gilteratinib and FF-10101 were used as reference compounds and tested in duplicate at eight concentrations. 100% of proliferation is represented by the untreated cells (0.2% DMSO).
(§4) On the day of the experiment, cells were quantified with the cell viability analyzer NucleoCounter (Chemometec NC-200) and diluted with fresh medium to obtain the cell density of about 10,000 cells per 200 μL medium. 200 μL of cell suspension were added into wells in the 96 well plate.
(§5) After 2 hours from seeding cells, compounds at desired concentrations were added using a D300e compound dispenser (Life Sciences Tecan D300) with shaking between each compound dispensed. Assay plates were incubated at 37° C. in a humidified incubator with 5% CO2.
(§6) On day 4 (˜96 hrs after compound addition) assay plates were equilibrated at room temperature for approximately 15 min, and then 40 μL/well of the Promega CellTiterGlo® reagent was added. Contents were mixed for 5 min on an orbital shaker to promote cell lysis, and then incubated at room temperature for an additional 10 min in the dark to stabilize the luminescent signal. Luminescence was read by using a GloMlax GM300 plate reader (Promega) using the luminescence for 96 well plate standard protocol.
(§7) Results were analyzed by GraphPad (Prism) and IC50 values were calculated by non-linear regression using four parameter-logistic equation.

MV-4-11 = experiment: Proliferation inhibition, CellTiter-Glo, MV-4-11; conditions: Homo sapiens, MV4-11, 96 h; MV-4:11 cells, IC50 (4 days), CellTiter-Glo; read-out: MV-4:11 IC50
Text: as §1, §2, §3, §4, §5, §6, §7

K-562 = experiment: Proliferation inhibition, CellTiter-Glo, K-562; conditions: Homo sapiens, K562, 96 h; K-562 cells, IC50 (4 days), CellTiter-Glo; read-out: K-562 IC50
Text: as §1, §2, §3, §4, §5, §6, §7

SMILES	IC50 (MOLM-13) [µM]	IC50 (MV-4-11) [µM]	IC50 (K-562) [µM]
CCc1nc(C(N)=O)c(Nc2cccc(CCNC(=O)[C@H](C)N(C)C(=O)/C=C/CN(C)C)c2)nc1C [Compound 142A, (S,E)-3-((3-(2-(2-(4-(dimethylamino)-N-methylbut-2-enamido)propanamido)ethyl)phenyl)amino)-6-ethyl-5-methylpyrazine-2-carboxamide]	0.001 to 0.01	0.001 to 0.01	> 0.5
CC#CC(=O)N(C)[C@@H](C)C(=O)NCCc1cccc(Nc2nc(N(C)C)c(CC)nc2C(N)=O)c1 [Compound 160, 3-[3-[2-[[(2S)-2-[but-2-ynoyl(methyl)amino]propanoyl]amino]ethyl]anilino]-5-(dimethylamino)-6-ethyl-pyrazine-2-carboxamide]	0.01 to 0.1	0.001 to 0.01	> 0.5
CCc1nc(C(N)=O)c(Nc2cccc(CCNC(=O)[C@H](C)N(C)C(=O)/C(F)=C/CN(C)C)c2)nc1N(C)C [Compound 162, (S,Z)-5-(dimethylamino)-3-((3-(2-(2-(4-(dimethylamino)-2-fluoro-N-methylbut-2-enamido)propanamido)ethyl)phenyl)amino)-6-ethylpyrazine-2-carboxamide]	0.1 to 0.5	0.01 to 0.1	> 0.5
CCc1nc(C(N)=O)c(Nc2cc(F)cc(CCNC(=O)[C@H](C)N(C)C(=O)/C=C/CN(C)C)c2)nc1C [Compound 163, 3-[3-[2-[[(2S)-2-[[(E)-4-(dimethylamino)but-2-enoyl]-methyl-amino]propanoyl]amino]ethyl]-5-fluoro-anilino]-6-ethyl-5-methyl-pyrazine-2-carboxamide]	0.001 to 0.01	0.001 to 0.01	> 0.5
[2H]C([2H])([2H])N(C/C=C/C(=O)N(C)[C@@H](C)C(=O)NCCc1cccc(Nc2nc(C)c(CC)nc2C(N)=O)c1)C([2H])([2H])[2H] [Compound 164, 3-[3-[2-[[(2S)-2-[[(E)-4-[bis(trideuteriomethyl)amino]but-2-enoyl]-methyl-amino]propanoyl]amino]ethyl]anilino]-6-ethyl-5-methyl-pyrazine-2-carboxamide]	0.01 to 0.1	0.001 to 0.01	> 0.5
CCc1nc(C(N)=O)c(Nc2cccc(CCNC(=O)[C@H](C)N(C)C(=O)/C=C/CN3CCC3)c2)nc1C [Compound 202, (S,E)-3-((3-(2-(2-(4-(azetidin-1-yl)-N-methylbut-2-enamido)propanamido)ethyl)phenyl)amino)-6-ethyl-5-methylpyrazine-2-carboxamide]	0.001 to 0.01	0.001 to 0.01	> 0.5
CC#CC(=O)N(C)[C@@H](C)C(=O)NCCc1cccc(Nc2nc(N(C)C)c(C)nc2C(N)=O)c1 [Compound 217, 3-[3-[2-[[(2S)-2-[but-2-ynoyl(methyl)amino]propanoyl]amino]ethyl]anilino]-5-(dimethylamino)-6-methyl-pyrazine-2-carboxamide]	0.01 to 0.1	0.01 to 0.1	> 0.5
CCc1nc(C(N)=O)c(Nc2cccc(CCNC(=O)C3(N(C)C(=O)/C=C/CN(C)C)CC3)c2)nc1C1CC1 [Compound 220, 5-cyclopropyl-3-[3-[2-[[1-[[(E)-4-(dimethylamino)but-2-enoyl]-methyl-amino]cyclopropanecarbonyl]amino]ethyl]anilino]-6-ethyl-pyrazine-2-carboxamide]	0.01 to 0.1	0.001 to 0.01	> 0.5
CCc1nc(C(N)=O)c(Nc2cccc(CCNC(=O)C3(N(C)C(=O)/C=C/CN(C)C)CC3)c2)nc1C [Compound 223, 3-[3-[2-[[1-[[(E)-4-(dimethylamino)but-2-enoyl]-methyl-amino]cyclopropanecarbonyl]amino]ethyl]anilino]-6-ethyl-5-methyl-pyrazine-2-carboxamide]	0.01 to 0.1	0.001 to 0.01	> 0.5
Cc1cc(C(N)=O)c(Nc2cncc(CCNC(=O)[C@H](C)N(C)C(=O)/C=C/CN(C)C)c2)nc1C1CC1 [Compound 323, (S,E)-6-cyclopropyl-2-((5-(2-(2-(4-(dimethylamino)-N-methylbut-2 enamido)propanamido)ethyl)pyridin-3-yl)amino)-5-methylnicotinamide]	0.1 to 0.5	0.01 to 0.1	
[2H]C([2H])([2H])N(C/C=C/C(=O)N(C)[C@@H](C)C(=O)NCCc1cccc(Nc2nc(NC(C)C)c(CC)nc2C(N)=O)c1)C([2H])([2H])[2H] [Compound 505, (S,E)-3-((3-(2-(2-(4-(bis(methyl-d3)amino)-N-methylbut-2-enamido)propanamido)ethyl)phenyl)amino)-6-ethyl-5-(isopropylamino)pyrazine-2-carboxamide]			> 0.5

Further lines, results first:

IC50 (MOLM-13) [µM]	IC50 (MV-4-11) [µM]	IC50 (K-562) [µM]	SMILES
0.01 to 0.1	0.01 to 0.1	> 0.5	Cc1nc(Nc2cccc(CCNC(=O)[C@H](C)N(C)C(=O)/C=C/CN(C)C)c2)c(C(N)=O)nc1C [Compound 207, 3-[3-[2-[[(2S)-2-[[(E)-4-(dimethylamino)but-2-enoyl]-methyl-amino]propanoyl]amino]ethyl]anilino]-5,6-dimethyl-pyrazine-2-carboxamide]
0.01 to 0.1	0.001 to 0.01	> 0.5	C=CC(=O)N(C)[C@@H](C)C(=O)NCCc1cccc(Nc2nc(C3CC3)c(CC)nc2C(N)=O)c1 [Compound 208, 5-cyclopropyl-6-ethyl-3-[3-[2-[[(2S)-2-[methyl(prop-2-enoyl)amino]propanoyl]amino]ethyl]anilino]pyrazine-2-carboxamide]
0.01 to 0.1	0.001 to 0.01	> 0.5	CC#CC(=O)N(C)[C@@H](C)C(=O)NCCc1cccc(Nc2nc(C3CC3)c(CC)nc2C(N)=O)c1 [Compound 209, 3-[3-[2-[[(2S)-2-[but-2-ynoyl(methyl)amino]propanoyl]amino]ethyl]anilino]-5-cyclopropyl-6-ethyl-pyrazine-2-carboxamide]
0.01 to 0.1	0.001 to 0.01	> 0.5	Cc1nc(C(N)=O)c(Nc2cccc(CCNC(=O)C(C)N(C)C(=O)/C=C/CN(C)C)c2)nc1C1CC1 (stereo not drawn) [Compound 211, 5-cyclopropyl-3-[3-[2-[2-[[(E)-4-(dimethylamino)but-2-enoyl]-methyl-amino]propanoylamino]ethyl]anilino]-6-methyl-pyrazine-2-carboxamide]
0.01 to 0.1	0.01 to 0.1	> 0.5	Cc1nc(Nc2cccc(CCNC(=O)[C@H](C)N(C)C(=O)/C=C/CN3CCC3)c2)c(C(N)=O)nc1C [Compound 214, 3-[3-[2-[[(2S)-2-[[(E)-4-(azetidin-1-yl)but-2-enoyl]-methyl-amino]propanoyl]amino]ethyl]anilino]-5,6-dimethyl-pyrazine-2-carboxamide]
> 0.5	> 0.5	> 0.5	C=C(F)C(=O)N(C)[C@@H](C)C(=O)NCCc1cccc(Nc2nc(C3CC3)c(CC)nc2C(N)=O)c1 [Compound 215, 5-cyclopropyl-6-ethyl-3-[3-[2-[[(2S)-2-[2-fluoroprop-2-enoyl(methyl)amino]propanoyl]amino]ethyl]anilino]pyrazine-2-carboxamide]
0.01 to 0.1	0.01 to 0.1	> 0.5	C=CC(=O)N(C)[C@@H](C)C(=O)NCCc1cccc(Nc2nc(C)c(CC)nc2C(N)=O)c1 [Compound 216, 6-ethyl-5-methyl-3-[3-[2-[[(2S)-2-[methyl(prop-2-enoyl)amino]propanoyl]amino]ethyl]anilino]pyrazine-2-carboxamide]
0.01 to 0.1	0.001 to 0.01	> 0.5	C=CC(=O)N(C)[C@@H](C)C(=O)NCCc1cccc(Nc2nc(N(C)C)c(C)nc2C(N)=O)c1 [Compound 218, 5-(dimethylamino)-6-methyl-3-[3-[2-[[(2S)-2-[methyl(prop-2-enoyl)amino]propanoyl]amino]ethyl]anilino]pyrazine-2-carboxamide]
0.01 to 0.1	0.01 to 0.1	> 0.5	C=CC(=O)N(C)[C@@H](C)C(=O)NCCc1cccc(Nc2nc(C3CC3)c(C)nc2C(N)=O)c1 [Compound 222, 5-cyclopropyl-6-methyl-3-[3-[2-[[(2S)-2-[methyl(prop-2-enoyl)amino]propanoyl]amino]ethyl]anilino]pyrazine-2-carboxamide]
